Read-outs that look alike come from different tables or passages of the source.
Key:
OATP1C1 [1] = target: T1, OATP1C1 (Homo sapiens, UniProt Q9NYB5); experiment: CHO-K1 OATP1C1 TH uptake assay with 125I-T4 tracer; format: cell-based; details: for 125I-T4 uptake compared to the vehicle control (range finding): single concentration 10 or 100 µM, below 80% = positive hit
T1 construct: host or cells: CHO-K1
T1 sequence (Q9NYB5 1-712): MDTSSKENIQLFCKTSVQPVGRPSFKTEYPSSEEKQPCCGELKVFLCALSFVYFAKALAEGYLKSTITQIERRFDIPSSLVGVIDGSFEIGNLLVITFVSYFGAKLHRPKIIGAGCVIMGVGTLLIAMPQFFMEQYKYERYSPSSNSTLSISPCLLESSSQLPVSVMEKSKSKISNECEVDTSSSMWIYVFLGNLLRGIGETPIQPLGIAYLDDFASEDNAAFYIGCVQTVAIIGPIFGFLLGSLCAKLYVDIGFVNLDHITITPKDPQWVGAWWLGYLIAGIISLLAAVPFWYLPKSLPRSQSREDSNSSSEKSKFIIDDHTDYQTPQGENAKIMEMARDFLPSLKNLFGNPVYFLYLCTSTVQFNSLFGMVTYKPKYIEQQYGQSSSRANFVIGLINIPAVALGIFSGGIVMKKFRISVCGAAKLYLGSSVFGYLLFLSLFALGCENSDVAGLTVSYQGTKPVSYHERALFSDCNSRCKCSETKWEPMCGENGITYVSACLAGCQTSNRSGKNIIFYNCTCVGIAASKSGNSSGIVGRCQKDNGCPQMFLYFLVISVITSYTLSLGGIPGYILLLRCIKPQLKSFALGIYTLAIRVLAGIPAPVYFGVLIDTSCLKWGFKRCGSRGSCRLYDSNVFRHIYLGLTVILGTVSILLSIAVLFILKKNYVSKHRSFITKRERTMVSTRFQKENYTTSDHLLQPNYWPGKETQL
Protocol: MDCK-OAT4 and MDCK-DEST cells were cultured in DMEM:F12 (L-glutamine, 15 mM HEPES) (Gibco) supplemented with (100 µg/mL penicillin + 100 µg/mL streptomycin), 10% fetal calf serum (Gibco) and 2 µg/mL blasticidin (Sigma). CHO-K1 OATP1C1 or WT cells were cultured in F12 nutrient mix (Gibco) supplemented with (100 µg/mL penicillin + 100 µg/mL streptomycin), 10% fetal calf serum (Gibco) and […] G418 (Sigma). All cell cultures were incubated at 37 °C with 5% CO2 saturation until 80% confluency. MDCK-OAT4 and MDCK-DEST cells were seeded in 96 wells plate at a density of 4 × 10^5 cells in 100 µL medium per well and incubated for 24 h before the start of the MDCK-OAT4 TH uptake assay. CHO-K1 OATP1C1 and WT cells were seeded in 96 wells plate at a density of 3 × 10^5 cells in 100 µL medium per well 72 h before the CHO-K1 OATP1C1 TH uptake assay. Medium from CHO-K1 OATP1C1 or WT assay plates was changed to serum-free F12 medium containing 5 mM sodium-butyrate 24 h before start of the CHO-K1 OATP1C1 TH uptake assay to increase transfected expression of SV-40 promotor plasmids.
Subsequently 10 µL of a tenfold stock of test compound in uptake buffer (solvent concentration 1% v/v) was added to each well. […] Cells were exposed at 37 °C for 20 min (MDCK-OAT4) or 30 min (CHO-K1 OATP1C1), unless stated differently. After exposure, cells were immediately washed with ice-cold PBS supplemented with 0.1% bovine serum albumin (BSA). Subsequently, cells were lysed in 50 µL of 0.1 M NaOH under continuous shaking at room temperature. After 20 min, cell lysates were manually transferred into separate 5 mL polypropylene tubes. One tube was also prepared with 10 µL of the T4 tracer solution. Radioactivity was measured in a Wizard^2 gamma counter (Perkin Elmer).
For the CHO-K1 OATP1C1 TH uptake assay total of 29 chemicals (Table 1) were selected for the EDC screening based on available literature data. […] The same chemicals were selected for the MDCK-OAT4 TH uptake assay, with the exception of BPF, VRP and TCS. […] The THTMT TH uptake assay was then performed as described earlier. […] A concentration of 100 µM ICG was used as a reference chemical for OATP1C1 and 100 µM LESI for OAT4. At least three independent experiments were performed for each chemical.
Raw values were normalized to the total amount of radioactivity in the T4 tracer solution. These values were expressed as a percentage of total radioactivity added (or uptake percentage) and used for all further data analysis. Statistically significant differences between the T4 uptake of transfected and wild type cells, in the presence or absence of inhibitor, were determined by two-way ANOVA (α = 5%, two-sided). […] In brief, uptake values were normalized to the median response of the vehicle and positive controls for each plate. […] Statistical analysis were performed using GraphPad Prism version 8 for Windows (GraphPad Software, San Diego, California USA) and SAS 9.3 (SAS Institute, Cary NC).

MDCK-OAT4 cells = experiment: CellTiter-Glo luminescent cell viability assay in MDCK-OAT4 cells; details: for Cytotoxicity IC10: concentration that inhibits cell viability by 10%, MDCK-OAT4 cells, 20 min exposure
Protocol: Cell viability was assessed through the quantitation of ATP present in cells using the commercially available CellTiter-Glo® luminescent cell viability assay and performed according to the manufacturer’s instruction (Promega, Leiden, the Netherlands). Briefly, cells were seeded as described earlier in opaque-walled clear-bottom 96 well plates. On the day of the experiment, each well was washed with 200 µL phosphate buffered saline (PBS) and exposed to 80 µL of uptake buffer, 10 µL of a tenfold stock of test compound solved in uptake buffer or control and 10 µL of T4 (final concentration 10 nM). 0.1% DMSO was used as a solvent control, while 10% DMSO was used as a positive control. After exposure for the indicated times similar to THTMT TH uptake assay, cells were immediately washed with ice-cold PBS + 0.1%BSA and exposed to 100 µL of the CellTiter-Glo® Reagent. Plates were then shaken on an orbital shaker for 2 min and left to incubate at room temperature for 10 min. Luminescence was measured on a BioTek Cytation 5 microplate reader. […] Each individual experiment was repeated at least twice and contained three technical replicates of each control and concentration tested.
Figure S2. […] Blue dots indicate the plate medians from three or four independent experiments, all control and chemical concentrations were tested in triplicates per plate. The black line indicates the best-fit concentrations response curve, the dotted line the corresponding 95% confidence interval.

oatp1c1 [2] = tested on: oatp1c1; set-up: method as in Tohyama et al. (2004); details: ref Tohyama et al. (2004); cited from earlier work
oatp1c1 [3] = tested on: oatp1c1; set-up: method as in Westholm et al. (2009); details: T4 1 nM; ref Westholm et al. (2009); read-out: IC50 of T4 transmembrane transport inhibition; cited from earlier work
[4] = concentration that inhibits 125I-T4 uptake by 20%, 10 nM T4, 30 min, brackets = 95% CI

| SMILES | T4 uptake inhibition BMC20 (M), [CI] (OATP1C1 [1]; [4]) | Cytotoxicity IC10 (MDCK-OAT4 cells) | 125I-T4 uptake compared to the vehicle control (range finding) (OATP1C1 [1]; 10 nM T4, 30 min) | also measured |
| --- | --- | --- | --- | --- |
| O=C(O)C(F)(F)C(F)(F)C(F)(F)C(F)(F)C(F)(F)C(F)(F)C(F)(F)F [Perfluorooctanoic acid] | 2.94E−06 [1.04E−06; 8.36E−06] M | > 100 µM |  |  |
| O=c1c(O)c(-c2ccc(O)c(O)c2)oc2cc(O)cc(O)c12 [Quercetin] | 3.94E−08 [4.41E−09; 3.51E−07] M | > 100 µM |  |  |
| O=S(=O)([O-])c1cc(S(=O)(=O)O)ccc1C1=c2cc3c4c(c2Oc2c1cc1c5c2CCCN5CCC1)CCC[N+]=4CCC3 [Sulforhodamine 101, reference compound] | 2.86E−06 [1.29E−06; 6.34E−06] M |  | below 80% |  |
| COc1cc([C@@H]2Oc3c(O)cc([C@H]4Oc5cc(O)cc(O)c5C(=O)[C@@H]4O)cc3[C@H]2CO)ccc1O [Silychristin, reference compound] | 3.78E−06 [1.54E−06; 9.27E−06] M |  | below 80% |  |
| CCCN(CCC)S(=O)(=O)c1ccc(C(=O)O)cc1 [Probenecid, reference compound] | 6.66E−07 [1.24E−07; 3.57E−06] M |  |  | Ki (oatp1c1 [2]): 293 µM |
| O=C1OC(c2ccc(O)c(S(=O)(=O)O)c2)(c2ccc(O)c(S(=O)(=O)O)c2)c2c(Br)c(Br)c(Br)c(Br)c21 [Bromosulfophthalein, reference compound] | 8.72E−07 [5.70E−07; 1.33E−06] M | > 100 µM | below 80% |  |
| CC(C)(c1cc(Br)c(O)c(Br)c1)c1cc(Br)c(O)c(Br)c1 [Tetrabromobisphenol A, Tetrabromobisphenol-A] | 2.03E−09 [1.28E−09; 3.22E−09] M | > 10 µM | below 80% | BMC20 (20% reduction in T4 uptake) (OATP1C1 [1]): 0.0020 µM |
| Oc1c(Cl)c(Cl)c(Cl)c(Cl)c1Cl [Pentachlorophenol] |  | 1.14 µM |  | T4 uptake inhibition BMC20 (M), [CI] (OATP1C1 [1]): 8.81E−08 [5.80E−08; 1.34E−07] M; cytotoxic effects (MDCK-OAT4 cells; at concentrations of the uptake assay, Figure S2): cytotoxic |
| O=S(=O)(O)C(F)(F)C(F)(F)C(F)(F)C(F)(F)C(F)(F)C(F)(F)C(F)(F)C(F)(F)F [Perfluorooctanesulfonic acid] | 4.03E−07 [2.32E−07; 7.00E−07] M | > 100 µM | below 80% |  |
| Oc1ccc(Cc2ccc(O)cc2)cc1 [Bisphenol F, Bisphenol-F] | 4.49E−05 [2.80E−05; 7.20E−05] M |  | below 80% |  |
| CO[C@H]1/C=C/O[C@@]2(C)Oc3c(C)c(O)c4c(O)c(c(/C=N/N5CCN(C)CC5)c(O)c4c3C2=O)NC(=O)/C(C)=C\C=C\[C@H](C)[C@H](O)[C@@H](C)[C@@H](O)[C@@H](C)[C@H](OC(C)=O)[C@@H]1C [Rifampicin, reference compound] | 4.06E−05 [2.58E−05; 6.38E−05] M | > 100 µM |  |  |
| CC1(C)C(/C=C/C=C/C=C/C=C2\N(CCCCS(=O)(=O)O)c3ccc4ccccc4c3C2(C)C)=[N+](CCCCS(=O)(=O)[O-])c2ccc3ccccc3c21 [Indocyanine green, reference compound] | 3.60E−07 [2.17E−07; 5.97E−07] M | > 10 µM |  | T4 uptake on co-exposure to known inhibitor (OATP1C1 [1]; 100 µM, t = 40 min, versus CHO-K1 wildtype cells): decreased back to control; IC50 (oatp1c1 [3]): 0.1 µM |
| Oc1ccc(C(c2ccc(O)cc2)(C(F)(F)F)C(F)(F)F)cc1 [Bisphenol AF, Bisphenol-AF] | 3.52E−06 [2.03E−06; 6.11E−06] M |  |  | cytotoxic effects (MDCK-OAT4 cells): cytotoxic |
